Reference: ChEMBL document CHEMBL5058649, “Data for DCP probe BAY 1816032” (2022)
Activity calls are given as the source filed them. No cut-off for these calls is given here.

What was measured:
[1] = molecular target: Calcium/calmodulin-dependent protein kinase type II subunit alpha (Homo sapiens) (UniProt Q9UQM7); experiment: CAMK2A DiscoveRx kinase panel; details: Compound concentration 1.0 uM
[2] = molecular target: Serine/threonine-protein kinase D2 (Homo sapiens) (UniProt Q9BZL6); experiment: PRKD2 DiscoveRx kinase panel; details: Compound concentration 1.0 uM
[3] = molecular target: Serine/threonine-protein kinase DCLK1 (Homo sapiens) (UniProt O15075); experiment: DCAMKL1 DiscoveRx kinase panel; details: Compound concentration 1.0 uM
[4] = molecular target: Mitotic checkpoint serine/threonine-protein kinase BUB1 (Homo sapiens, UniProt O43683); experiment: BUB1 surface plasmon resonance (SPR) assay
[5] = molecular target: Serine/threonine-protein kinase MARK2 (Homo sapiens) (UniProt Q7KZI7); experiment: MARK2 DiscoveRx kinase panel; details: Compound concentration 1.0 uM
Chain of Serine/threonine-protein kinase MARK2 (Homo sapiens) (Q7KZI7 whole entry): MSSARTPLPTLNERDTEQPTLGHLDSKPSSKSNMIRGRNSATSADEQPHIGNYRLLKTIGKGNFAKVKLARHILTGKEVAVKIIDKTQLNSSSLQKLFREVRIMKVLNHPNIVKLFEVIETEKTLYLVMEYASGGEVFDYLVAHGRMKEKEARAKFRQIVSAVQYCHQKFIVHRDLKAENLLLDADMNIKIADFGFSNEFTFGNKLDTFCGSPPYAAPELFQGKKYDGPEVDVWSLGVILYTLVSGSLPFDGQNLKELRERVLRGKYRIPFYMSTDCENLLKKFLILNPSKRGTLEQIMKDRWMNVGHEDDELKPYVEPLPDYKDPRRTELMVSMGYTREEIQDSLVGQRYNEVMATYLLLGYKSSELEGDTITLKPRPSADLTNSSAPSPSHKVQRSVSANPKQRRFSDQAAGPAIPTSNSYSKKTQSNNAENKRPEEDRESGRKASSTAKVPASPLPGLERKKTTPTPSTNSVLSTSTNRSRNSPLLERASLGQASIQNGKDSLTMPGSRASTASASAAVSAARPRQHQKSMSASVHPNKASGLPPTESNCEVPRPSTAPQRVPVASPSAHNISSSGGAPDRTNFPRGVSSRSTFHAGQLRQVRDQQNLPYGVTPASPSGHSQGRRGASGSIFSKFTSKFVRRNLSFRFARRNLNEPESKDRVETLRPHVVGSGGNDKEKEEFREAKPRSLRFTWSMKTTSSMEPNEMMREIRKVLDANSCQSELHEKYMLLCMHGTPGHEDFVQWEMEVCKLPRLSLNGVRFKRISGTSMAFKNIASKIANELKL

[6] = molecular target: Histamine H2 receptor (Homo sapiens) (UniProt P25021); details: Compound concentration 10.0 uM
[7] = molecular target: Tyrosine-protein kinase HCK (Homo sapiens) (UniProt P08631); experiment: HCK DiscoveRx kinase panel; details: Compound concentration 1.0 uM
[8] = molecular target: Serine/threonine-protein kinase WNK4 (Homo sapiens) (UniProt Q96J92); experiment: WNK4 DiscoveRx kinase panel; details: Compound concentration 1.0 uM
Chain of Serine/threonine-protein kinase WNK4 (Homo sapiens) (Q96J92 whole entry): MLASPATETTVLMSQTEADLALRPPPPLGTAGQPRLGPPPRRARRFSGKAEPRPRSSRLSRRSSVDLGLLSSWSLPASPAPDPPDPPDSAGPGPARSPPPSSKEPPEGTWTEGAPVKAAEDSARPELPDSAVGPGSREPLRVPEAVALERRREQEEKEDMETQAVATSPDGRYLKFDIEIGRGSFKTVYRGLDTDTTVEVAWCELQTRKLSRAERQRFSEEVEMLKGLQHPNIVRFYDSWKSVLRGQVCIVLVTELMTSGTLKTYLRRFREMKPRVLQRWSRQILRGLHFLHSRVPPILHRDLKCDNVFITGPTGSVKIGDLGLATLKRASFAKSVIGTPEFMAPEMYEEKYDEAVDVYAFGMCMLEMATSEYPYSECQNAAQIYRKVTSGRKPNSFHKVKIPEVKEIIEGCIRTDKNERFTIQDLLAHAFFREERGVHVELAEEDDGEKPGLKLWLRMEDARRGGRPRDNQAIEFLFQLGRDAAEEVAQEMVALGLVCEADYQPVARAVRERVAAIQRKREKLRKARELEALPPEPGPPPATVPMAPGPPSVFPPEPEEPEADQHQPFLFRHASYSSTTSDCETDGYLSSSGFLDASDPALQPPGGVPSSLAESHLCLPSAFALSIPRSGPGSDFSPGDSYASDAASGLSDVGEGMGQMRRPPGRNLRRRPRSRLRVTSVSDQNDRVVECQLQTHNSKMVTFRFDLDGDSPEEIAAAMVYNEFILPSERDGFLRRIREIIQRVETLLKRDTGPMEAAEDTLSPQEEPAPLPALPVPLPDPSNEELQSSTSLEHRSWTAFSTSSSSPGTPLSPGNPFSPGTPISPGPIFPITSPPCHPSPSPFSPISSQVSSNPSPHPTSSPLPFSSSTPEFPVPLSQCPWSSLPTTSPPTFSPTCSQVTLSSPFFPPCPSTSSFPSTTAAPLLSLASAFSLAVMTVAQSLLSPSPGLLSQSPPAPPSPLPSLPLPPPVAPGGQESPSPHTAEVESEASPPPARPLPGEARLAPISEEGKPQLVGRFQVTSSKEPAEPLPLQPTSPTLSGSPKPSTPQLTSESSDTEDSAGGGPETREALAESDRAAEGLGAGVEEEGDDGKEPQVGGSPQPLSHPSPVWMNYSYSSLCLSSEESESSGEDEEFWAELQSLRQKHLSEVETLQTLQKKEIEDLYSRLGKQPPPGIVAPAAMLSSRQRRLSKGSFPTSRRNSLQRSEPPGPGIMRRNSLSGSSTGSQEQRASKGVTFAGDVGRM

[9] = molecular target: Serine/threonine-protein kinase PLK1 (Homo sapiens) (UniProt P53350); experiment: PLK1 DiscoveRx kinase panel; details: Compound concentration 1.0 uM
[10] = molecular target: Serine/threonine-protein kinase BRSK2 (Homo sapiens) (UniProt Q8IWQ3); experiment: BRSK2 DiscoveRx kinase panel; details: Compound concentration 1.0 uM
[11] = molecular target: Ribosomal protein S6 kinase alpha-2 (Homo sapiens) (UniProt Q15349); experiment: RSK3(Kin.Dom.2-C-terminal) DiscoveRx kinase panel; details: Compound concentration 1.0 uM
[12] = molecular target: Ephrin type-A receptor 6 (Homo sapiens) (UniProt Q9UF33); experiment: EPHA6 DiscoveRx kinase panel; details: Compound concentration 1.0 uM
[13] = molecular target: Fibroblast growth factor receptor 3 (Homo sapiens) (UniProt P22607); experiment: FGFR3 DiscoveRx kinase panel; details: Compound concentration 1.0 uM
[14] = molecular target: STE20-like serine/threonine-protein kinase (Homo sapiens) (UniProt Q9H2G2); experiment: SLK DiscoveRx kinase panel; details: Compound concentration 1.0 uM
[15] = molecular target: Mitogen-activated protein kinase 7 (Homo sapiens) (UniProt Q13164); experiment: ERK5 DiscoveRx kinase panel; details: Compound concentration 1.0 uM
[16] = molecular target: Myosin-IIIa (Homo sapiens) (UniProt Q8NEV4); experiment: MYO3A DiscoveRx kinase panel; details: Compound concentration 1.0 uM
[17] = molecular target: D(3) dopamine receptor (Homo sapiens) (UniProt P35462); details: Compound concentration 10.0 uM
[18] = molecular target: Serine/threonine-protein kinase Sgk2 (Homo sapiens) (UniProt Q9HBY8); experiment: SGK2 DiscoveRx kinase panel; details: Compound concentration 1.0 uM
[19] = molecular target: 5-hydroxytryptamine receptor 1B (Homo sapiens) (UniProt P28222); experiment: Serotonin (5-Hydroxytryptamine) 5-HT1B Eurofins-Panlabs radioligand binding assay; design: ligand concentration 1 nM; details: Compound concentration 10.0 uM
[20] = molecular target: Mitogen-activated protein kinase kinase kinase 7 (Homo sapiens) (UniProt O43318); experiment: TAK1 DiscoveRx kinase panel; details: Compound concentration 1.0 uM
[21] = molecular target: Vascular endothelial growth factor receptor 3 (Homo sapiens) (UniProt P35916); experiment: FLT4 DiscoveRx kinase panel; details: Compound concentration 1.0 uM
[22] = molecular target: Insulin receptor (Homo sapiens) (UniProt P06213); experiment: INSR DiscoveRx kinase panel; details: Compound concentration 1.0 uM
[23] = molecular target: MAP/microtubule affinity-regulating kinase 3 (Homo sapiens) (UniProt P27448); experiment: MARK3 DiscoveRx kinase panel; details: Compound concentration 1.0 uM
[24] = molecular target: Leukocyte tyrosine kinase receptor (Homo sapiens) (UniProt P29376); experiment: LTK DiscoveRx kinase panel; details: Compound concentration 1.0 uM
[25] = molecular target: Serine/threonine-protein kinase Nek5 (Homo sapiens) (UniProt Q6P3R8); experiment: NEK5 DiscoveRx kinase panel; details: Compound concentration 1.0 uM
[26] = molecular target: Sodium-dependent noradrenaline transporter (Homo sapiens, UniProt P23975); details: Compound concentration 10.0 uM
[27] = molecular target: Tyrosine-protein kinase Lck (Homo sapiens) (UniProt P06239); experiment: LCK DiscoveRx kinase panel; details: Compound concentration 1.0 uM
[28] = molecular target: Alpha-1D adrenergic receptor (Homo sapiens, UniProt P25100); experiment: GPCRScan assay: inhibition of Alpha1D; design: radioligand conc. used [nm] 0.3 – 1.0, parental cells stable
Chain of Alpha-1D adrenergic receptor (P25100 whole entry): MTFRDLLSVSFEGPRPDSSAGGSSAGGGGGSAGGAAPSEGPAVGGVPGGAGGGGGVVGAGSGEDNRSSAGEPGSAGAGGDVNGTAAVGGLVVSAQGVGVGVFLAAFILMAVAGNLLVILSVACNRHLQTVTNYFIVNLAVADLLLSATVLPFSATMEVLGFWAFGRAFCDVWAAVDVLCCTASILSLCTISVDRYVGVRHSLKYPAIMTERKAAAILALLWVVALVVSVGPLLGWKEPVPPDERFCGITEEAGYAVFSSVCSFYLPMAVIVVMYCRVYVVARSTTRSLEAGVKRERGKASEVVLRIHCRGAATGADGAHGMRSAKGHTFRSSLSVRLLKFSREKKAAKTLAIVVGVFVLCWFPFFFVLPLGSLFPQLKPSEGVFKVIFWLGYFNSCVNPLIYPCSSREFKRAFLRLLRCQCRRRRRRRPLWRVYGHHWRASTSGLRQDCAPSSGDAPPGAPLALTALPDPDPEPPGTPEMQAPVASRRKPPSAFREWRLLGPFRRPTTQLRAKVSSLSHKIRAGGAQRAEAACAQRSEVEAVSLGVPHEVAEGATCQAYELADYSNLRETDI

[29] = molecular target: Histamine H3 receptor (Homo sapiens) (UniProt Q9Y5N1); details: Compound concentration 10.0 uM
[30] = molecular target: Serine/threonine-protein kinase 3 (Homo sapiens) (UniProt Q13188); experiment: MST2 DiscoveRx kinase panel; details: Compound concentration 1.0 uM
Chain of Serine/threonine-protein kinase 3 (Homo sapiens) (Q13188 whole entry): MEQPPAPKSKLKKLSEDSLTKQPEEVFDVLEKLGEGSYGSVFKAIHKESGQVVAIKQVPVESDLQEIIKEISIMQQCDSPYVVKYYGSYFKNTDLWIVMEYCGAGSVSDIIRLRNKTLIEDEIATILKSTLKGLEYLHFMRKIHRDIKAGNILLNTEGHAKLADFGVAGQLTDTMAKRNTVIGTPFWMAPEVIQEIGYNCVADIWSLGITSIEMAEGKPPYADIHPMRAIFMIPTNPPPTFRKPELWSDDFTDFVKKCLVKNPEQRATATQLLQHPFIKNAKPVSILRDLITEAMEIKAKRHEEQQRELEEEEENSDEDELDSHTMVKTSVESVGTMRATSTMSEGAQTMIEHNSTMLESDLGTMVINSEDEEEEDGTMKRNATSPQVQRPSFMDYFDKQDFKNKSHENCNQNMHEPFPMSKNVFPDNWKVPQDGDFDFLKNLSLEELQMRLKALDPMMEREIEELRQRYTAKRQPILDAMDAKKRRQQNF

[31] = molecular target: Serine/threonine-protein kinase Sgk1 (Homo sapiens) (UniProt O00141); experiment: SGK DiscoveRx kinase panel; details: Compound concentration 1.0 uM
[32] = molecular target: Mitogen-activated protein kinase 9 (Homo sapiens) (UniProt P45984); experiment: JNK2 DiscoveRx kinase panel; details: Compound concentration 1.0 uM
[33] = molecular target: Epithelial discoidin domain-containing receptor 1 (Homo sapiens, UniProt Q08345); experiment: DDR1 DiscoveRx kinase panel
Chain of Epithelial discoidin domain-containing receptor 1 (Q08345 whole entry, the tested form may be a part): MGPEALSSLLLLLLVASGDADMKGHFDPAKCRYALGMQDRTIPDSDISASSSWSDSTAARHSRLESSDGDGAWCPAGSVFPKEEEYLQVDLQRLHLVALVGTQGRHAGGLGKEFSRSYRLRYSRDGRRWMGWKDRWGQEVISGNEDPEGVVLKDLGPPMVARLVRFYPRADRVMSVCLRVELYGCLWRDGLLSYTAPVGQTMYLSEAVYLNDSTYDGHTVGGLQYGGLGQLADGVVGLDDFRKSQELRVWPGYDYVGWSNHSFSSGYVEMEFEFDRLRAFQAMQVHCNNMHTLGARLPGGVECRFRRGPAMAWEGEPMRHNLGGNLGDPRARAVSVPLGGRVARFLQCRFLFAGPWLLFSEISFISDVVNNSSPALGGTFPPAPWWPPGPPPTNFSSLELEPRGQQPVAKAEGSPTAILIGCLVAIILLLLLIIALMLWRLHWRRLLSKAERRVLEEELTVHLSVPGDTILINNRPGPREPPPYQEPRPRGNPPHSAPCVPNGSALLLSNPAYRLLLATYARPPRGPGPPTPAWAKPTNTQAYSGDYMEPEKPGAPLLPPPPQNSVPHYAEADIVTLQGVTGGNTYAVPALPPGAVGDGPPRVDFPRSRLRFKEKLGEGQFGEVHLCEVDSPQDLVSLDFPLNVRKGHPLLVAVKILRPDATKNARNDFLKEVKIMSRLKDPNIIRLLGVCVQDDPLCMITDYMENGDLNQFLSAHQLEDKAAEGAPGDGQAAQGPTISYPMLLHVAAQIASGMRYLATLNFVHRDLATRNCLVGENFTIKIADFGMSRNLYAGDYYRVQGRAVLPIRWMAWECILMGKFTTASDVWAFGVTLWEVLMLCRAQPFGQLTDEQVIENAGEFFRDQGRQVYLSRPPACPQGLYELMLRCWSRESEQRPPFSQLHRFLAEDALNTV

[34] = molecular target: Cyclin-dependent kinase 2 (Homo sapiens) (UniProt P24941); experiment: CDK2 DiscoveRx kinase panel; details: Compound concentration 1.0 uM
[35] = molecular target: Interferon-induced, double-stranded RNA-activated protein kinase (Homo sapiens) (UniProt P19525); experiment: PRKR DiscoveRx kinase panel; details: Compound concentration 1.0 uM
[36] = molecular target: Serine/threonine-protein kinase TNNI3K (Homo sapiens) (UniProt Q59H18); experiment: TNNI3K DiscoveRx kinase panel; details: Compound concentration 1.0 uM
[37] = species: Homo sapiens; experiment: Chemokine CCR1 Eurofins-Panlabs radioligand binding assay; design: ligand concentration 0.1 nM; details: Compound concentration 10.0 uM
[38] = molecular target: Uncharacterized serine/threonine-protein kinase SBK3 (Homo sapiens) (UniProt P0C264); experiment: SgK110 DiscoveRx kinase panel; details: Compound concentration 1.0 uM
[39] = molecular target: Serine/threonine-protein kinase PLK2 (Homo sapiens) (UniProt Q9NYY3); experiment: PLK2 DiscoveRx kinase panel; details: Compound concentration 1.0 uM
[40] = molecular target: Serine/threonine-protein kinase OSR1 (Homo sapiens) (UniProt O95747); experiment: OSR1 DiscoveRx kinase panel; details: Compound concentration 1.0 uM
Chain of Serine/threonine-protein kinase OSR1 (Homo sapiens) (O95747 2-527 limits assumed): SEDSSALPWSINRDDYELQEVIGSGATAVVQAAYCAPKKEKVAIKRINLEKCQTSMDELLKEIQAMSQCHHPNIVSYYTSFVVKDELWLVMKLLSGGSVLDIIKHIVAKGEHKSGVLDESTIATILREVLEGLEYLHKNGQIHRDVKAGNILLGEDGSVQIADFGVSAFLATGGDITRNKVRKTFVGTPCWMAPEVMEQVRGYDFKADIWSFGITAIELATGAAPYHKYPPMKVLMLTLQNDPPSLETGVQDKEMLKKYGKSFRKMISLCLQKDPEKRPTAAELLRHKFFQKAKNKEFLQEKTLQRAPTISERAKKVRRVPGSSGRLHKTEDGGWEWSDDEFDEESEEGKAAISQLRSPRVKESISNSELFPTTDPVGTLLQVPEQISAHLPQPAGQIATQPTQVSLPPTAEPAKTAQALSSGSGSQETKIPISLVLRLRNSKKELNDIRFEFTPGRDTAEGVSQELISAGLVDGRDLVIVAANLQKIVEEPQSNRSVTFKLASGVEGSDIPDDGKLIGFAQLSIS

[41] = molecular target: Acetylcholinesterase (Homo sapiens) (UniProt P22303); details: Compound concentration 10.0 uM
[42] = molecular target: RAC-gamma serine/threonine-protein kinase (Homo sapiens) (UniProt Q9Y243); experiment: AKT3 DiscoveRx kinase panel; details: Compound concentration 1.0 uM
Chain of RAC-gamma serine/threonine-protein kinase (Homo sapiens) (Q9Y243 whole entry): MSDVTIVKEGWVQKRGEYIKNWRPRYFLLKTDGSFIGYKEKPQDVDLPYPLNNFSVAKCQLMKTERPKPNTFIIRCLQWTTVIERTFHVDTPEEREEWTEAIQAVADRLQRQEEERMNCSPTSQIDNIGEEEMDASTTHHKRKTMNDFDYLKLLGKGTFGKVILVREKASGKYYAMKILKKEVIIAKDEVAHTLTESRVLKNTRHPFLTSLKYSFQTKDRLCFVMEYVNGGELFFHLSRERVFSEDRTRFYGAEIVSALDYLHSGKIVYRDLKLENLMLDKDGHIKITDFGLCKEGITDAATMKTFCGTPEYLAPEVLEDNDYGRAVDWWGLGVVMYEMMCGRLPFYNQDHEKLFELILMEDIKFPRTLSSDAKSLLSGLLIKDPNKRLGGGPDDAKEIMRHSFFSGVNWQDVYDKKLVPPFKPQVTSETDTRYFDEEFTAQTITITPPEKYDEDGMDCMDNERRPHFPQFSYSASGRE

[43] = molecular target: Receptor-interacting serine/threonine-protein kinase 4 (Homo sapiens) (UniProt P57078); experiment: RIPK4 DiscoveRx kinase panel; details: Compound concentration 1.0 uM
[44] = molecular target: Ephrin type-B receptor 6 (Homo sapiens) (UniProt O15197); experiment: EPHB6 DiscoveRx kinase panel; details: Compound concentration 1.0 uM
[45] = molecular target: Interleukin-1 receptor-associated kinase 3 (Homo sapiens) (UniProt Q9Y616); experiment: IRAK3 DiscoveRx kinase panel; details: Compound concentration 1.0 uM
[46] = molecular target: Inhibitor of nuclear factor kappa-B kinase subunit alpha (Homo sapiens) (UniProt O15111); experiment: IKK-alpha DiscoveRx kinase panel; details: Compound concentration 1.0 uM
[47] = molecular target: Receptor tyrosine-protein kinase erbB-2 (Homo sapiens) (UniProt P04626); experiment: ERBB2 DiscoveRx kinase panel; details: Compound concentration 1.0 uM
[48] = molecular target: Voltage-dependent N-type calcium channel subunit alpha-1B (Homo sapiens) (UniProt Q00975); experiment: Inhibition of Calcium Channel N-Type at 10 µM in the Eurofins-Panlabs radioligand binding assay (Eurofins_assay_216000); details: Rattus norvegicus; Compound concentration 10.0 uM
[49] = molecular target: 5-hydroxytryptamine receptor 2B (Homo sapiens) (UniProt P41595); details: Compound concentration 10.0 uM

With `COc1cnccc1Nc1nc(-c2nn(Cc3c(F)cc(OCCO)cc3F)c3ccccc23)ncc1OC` the residual activity [1] was 58%, the residual activity [2] was 100% and the residual activity [3] was 100%. For the same compound, the Kd [4] was 0.0021 µM (active), the residual activity [5] was 67% and the inhibition [6] was 9.79%. For the same compound, the residual activity [7] was 100%, the residual activity [8] was 63% and the residual activity [9] was 98%. The residual activity [10] was 83%, the residual activity [11] was 100% and the residual activity [12] was 89%. It also gave a residual activity [13] of 100%, a residual activity [14] of 100% and a residual activity [15] of 94%. The residual activity [16] was 100%, the inhibition [17] was 1.89% and the residual activity [18] was 100%. It also gave an inhibition [19] of 15%, a residual activity [20] of 100% and a residual activity [21] of 82%. For the same compound, the residual activity [22] was 97%, the residual activity [23] was 73% and the residual activity [24] was 100%. It also gave a residual activity [25] of 88%, an inhibition [26] of 26% and a residual activity [27] of 100%. It also gave a Ki [28] of over 10 µM, a pKi [28] of under 5 and an inhibition [29] of 21.3%. It also gave a residual activity [30] of 82%, a residual activity [31] of 93% and a residual activity [32] of 39%. It also gave a Kd [33] of 2.3 µM, a residual activity ([33]; Compound concentration 1.0 uM) of 21% and a residual activity [34] of 89%. The residual activity [35] was 88%, the residual activity [36] was 97% and the inhibition [37] was -4%. The residual activity [38] was 100%, the residual activity [39] was 100% and the residual activity [40] was 100%. It also gave an inhibition [41] of 2%, a residual activity [42] of 100% and a residual activity [43] of 70%. It also gave a residual activity [44] of 100%, a residual activity [45] of 92% and a residual activity [46] of 100%. For the same compound, the residual activity [47] was 100%, the inhibition [48] was 10% and the inhibition [49] was 22%.
